Source: US10910084B2, “Method for modelling, optimizing, parameterizing, testing and validating a dynamic network with network perturbations” (Albert-Ludwigs-Universität Freiburg, priority 2011, dated 2021)

Experiments:
Type in all cases: cell-based
[1] = system: mTOR-pS2481 (mTORC2 readout) in HeLa cells; assay: mTOR-pS2481 immunoblot of whole cell lysates, HeLa cells starved and induced with aa/insulin
Protocol: (§1) Experiments were performed in particular in HeLa α Kyoto cells and C2C12 myoblasts. For inducible knock down of Raptor or TSC2, cells were transduced with lentivirus encoding the tetracycline-sensitive tTR-KRAB repressor and a DsRed reporter. Cells were subsequently transfected with lentivirus encoding the specific shRNA, and a GFP reporter, (pLVTH vector), both preferably under the control of tTR-KRAB. For lentivirus-mediated knock down of Rictor a pLKO.1-based short hairpin construct specific for Rictor (Addgene plasmid 1853), as well as a scrambled control sequence (Addgene plasmid 1864) can in particular be supplied from Addgene. HeLa cells were transfected with viral supernatant twice as described previously and harvested 60 hours after transfection.
For calibration data sets, in particular HeLa cells can be starved for serum and amino acids by exchanging standard growth medium for Hank's Buffered Salt Solution (HBSS) (PAN Biotech GmbH, Aidenbach, Germany) over night to inhibit mTOR pathway activity. After 16 hours of starvation, mTOR signaling was restimulated with DMEM containing amino acids and supplemented with 100 nM insulin (Sigma Aldrich, St. Louis, Mo., USA).
Gradual knockdowns of Raptor or TSC2 can preferably be established by induction with 5 μg/ml doxycycline (Calbiochem, Merck, Darmstadt, Germany) for 0, 1, 2, or 3 days. Cells can be starved for 16 hours in HBSS and mTOR signaling was induced with DMEM (PAA, Pasching, Austria) supplemented with 100 nM insulin. […] Wortmannin or LY294002 can in particular be added 30 min prior to and during the stimulation with DMEM supplemented 100 nM insulin. Cells can for example be washed once with PBS and lysed with TNE lysis buffer [50 mM Tris HCL pH8.0, 150 mM NaCl, 1% v/v TritonX-100 (Calbiochem, Merck, Darmstadt, Germany), Complete (Roche, Mannheim, Germany), Phosphatase Inhibitor Cocktail 2, Phosphatase Inhibitor Cocktail 3 (both Sigma Aldrich, St. Louis, Mo., USA)]. Protein concentrations can preferably be measured (Protein Assay Dye Reagent Concentrate, Bio-Rad, Hercules, Calif., USA) according to manufacturer's protocol. Concentrations can for example be adjusted with lysis buffer. […] Whole cell lysates can for example be analyzed using SDS-PAGE gels. […]
HRP can for example be detected with the ECL Western Blotting Substrate or the SuperSignal West Femto reagent [Pierce Biotechnology (Thermo Scientific, Rockford, Ill. USA)], and the emitted light can in particular be detected and quantified with a chemiluminescence imaging analyzer (LAS4000mini; Fujifilm, Tokyo, Japan). Obtained images can preferably be analyzed with Multi-Gauge version 3.0 software (Fujifilm, Tokyo, Japan). […]

[2] = system: mTOR-pS2481 associated with the immunoprecipitated mTORC2; assay: mTOR-pS2481 in mTORC2 immunoprecipitated with Sin1 antibody, HeLa cells; settings: Sin1 immunoprecipitation
Protocol: Immunoprecipitations can in particular be performed as described elsewhere. […] Immunoprecipitations were performed with 5 μg/ml antibody [antibody recognizing Sin1, Raptor, or rabbit IgG (all Bethyl)] and with magnetic Dynabeads Protein G (Invitrogen). Gradual knockdowns of Raptor or TSC2 can preferably be established by induction with 5 μg/ml doxycycline (Calbiochem, Merck, Darmstadt, Germany) for 0, 1, 2, or 3 days. Cells can be starved for 16 hours in HBSS and mTOR signaling was induced with DMEM (PAA, Pasching, Austria) supplemented with 100 nM insulin. […] Wortmannin or LY294002 can in particular be added 30 min prior to and during the stimulation with DMEM supplemented 100 nM insulin. […] Protein concentrations can preferably be measured (Protein Assay Dye Reagent Concentrate, Bio-Rad, Hercules, Calif., USA) according to manufacturer's protocol. […] Whole cell lysates can for example be analyzed using SDS-PAGE gels. […] HRP can for example be detected with the ECL Western Blotting Substrate or the SuperSignal West Femto reagent [Pierce Biotechnology (Thermo Scientific, Rockford, Ill. USA)], and the emitted light can in particular be detected and quantified with a chemiluminescence imaging analyzer (LAS4000mini; Fujifilm, Tokyo, Japan). Obtained images can preferably be analyzed with Multi-Gauge version 3.0 software (Fujifilm, Tokyo, Japan). […]

[3] = system: p70-S6K-pT389 (mTORC1 readout) in HeLa cells; assay: p70-S6K-pT389 immunoblot of whole cell lysates, HeLa cells; settings: quantitation of 3 experiments; 200 nM PP242; Rapamycin; * P<0.05
Protocol: as §1, with “HeLa cells were transfected with viral supernatant twice as described previously and harvested 60 hours after transfection.” left out
(§2) Gradual knockdowns of Raptor or TSC2 can preferably be established by induction with 5 μg/ml doxycycline (Calbiochem, Merck, Darmstadt, Germany) for 0, 1, 2, or 3 days. […] Protein concentrations can preferably be measured (Protein Assay Dye Reagent Concentrate, Bio-Rad, Hercules, Calif., USA) according to manufacturer's protocol. […] Whole cell lysates can for example be analyzed using SDS-PAGE gels. […]
(§3) HRP can for example be detected with the ECL Western Blotting Substrate or the SuperSignal West Femto reagent [Pierce Biotechnology (Thermo Scientific, Rockford, Ill. USA)], and the emitted light can in particular be detected and quantified with a chemiluminescence imaging analyzer (LAS4000mini; Fujifilm, Tokyo, Japan). […]

[4] = system: mTOR-pS2481 in C2C12 cells; assay: mTOR-pS2481 immunoblot in C2C12 myoblasts; settings: continuous presence of aa/insulin
Protocol: as §1, with “HeLa cells were transfected with viral supernatant twice as described previously and harvested 60 hours after transfection.” left out
as §2, §3

Akt-pS473 in HeLa cells = assay: Akt-pS473 immunoblot of whole cell lysates, HeLa cells; settings: HeLa cells starved, induced by aa/insulin for 30 and 50 min
Protocol: as §1, with “HeLa cells were transfected with viral supernatant twice as described previously and harvested 60 hours after transfection.” left out
as §2, §3

O=c1cc(N2CCOCC2)oc2c(-c3ccccc3)cccc12 [LY294002]
LY294002 concentrations at which mTORpS2481 was reduced ([1]; HeLa cells (FIG. 10C)): ≥ 1 µM

CC(C)n1nc(-c2cc3cc(O)ccc3[nH]2)c2c(N)ncnc21 [PP242]
mTOR-pS2481 associated with the immunoprecipitated mTORC2 [2]: significantly reduced | p70-S6K-pT389 compared to DMSO-treated control, significance (FIG. 1D) [3]: significant | mTOR-pS2481 abundance ([1]; HeLa cells, short-term treatment): reduced the abundance of mTORpS2481 in a dose-dependent manner | mTOR-pS2481 compared to DMSO-treated control, significance (FIG. 1E) ([1]; quantitation of 3 experiments, 200 nM PP242, 100 nM Rapamycin, * P<0.05): significant | amount of mTOR-pS2481 [4]: decreased

COC[C@H]1OC(=O)c2coc3c2[C@@]1(C)C1=C(C3=O)[C@@H]2CCC(=O)[C@@]2(C)C[C@H]1OC(C)=O [Wortmannin]
Wortmannin concentration at which Akt-pS473 was already inhibited (Akt-pS473 in HeLa cells): 5 nM | Wortmannin concentrations at which Akt-pS473 was strongly inhibited (Akt-pS473 in HeLa cells): ≥ 10 nM | Wortmannin concentrations at which mTORpS2481 was inhibited ([1]; HeLa cells starved, induced by aa/insulin for 30 and 50 min): ≥ 20 nM
